Experiments:
[1] = Cell viability by trypan blue exclusion; assay type: cell-based; settings: a2058 and 5r cells; average
Experimental: Compound 1 was preincubated with the cells for various periods of time, added at the start of the assay, or added later. Additionally, compound 1 remained present during the motility assay. The cells were assayed for their motile response to AMF. AMF stimulates random and directed locomotion of 5R ras-transfected rat embryo fibroblasts and A2058 human melanoma cells. […] Cell viability determined by trypan blue exclusion averaged greater than 96%. Cells exposed to various concentrations of compound 1 were tested for their response to AMF vs. control. Percent stimulated motility (in densitometer units) is defined as: […]

CHOm5 cells = assay: Calcium ionophore A23187-stimulated 45Ca2+ influx; assay type: cell-based, Chinese hamster; settings: Cricetulus griseus; FIG. 13, A23187
Experimental: Calcium influx was determined using two methods. The first method involved the use of ^45 Ca^2+, while the second method utilized a fluorescent intracellular calcium chelator, Fura-2. The method using Fura-2 is semi-quantitative and is preferred for kinetic analysis and screening whereas the ^45 Ca^2+ method is quantitative.
CHOm5 cells in monolayer culture were washed free of serum-containing media and incubated with either carbachol or the calcium ionophore A23187 (from Molecular Probes, Eugene, Oreg., USA) in the presence of ^45 Ca^2+ and defined buffer (E2 medium with 0.1 mM MgCl2 and 1.0 mM CaCl2). After incubation for 5 min, the radioactive buffer was rapidly and repeatedly washed off with media containing LaCl3, a competitor of calcium efflux. The cell monolayer was solubilized and the calcium uptake was determined by scintillation counting.

[2] = tested on: OVCAR3 human ovarian cancer; assay: Survival after intraperitoneal treatment; assay type: in vivo, nude mice; settings: 50 mg/kg/d ip
Text: This example illustrates the effect of compound 1 on the survival of nude mice. The mice had been intraperitoneally injected with OVCAR3 human ovarian cancer cells followed, after three weeks, by intraperitoneal injection of 1.
The OVCAR3 human ovarian cancer animal model accurately approximates the clinical presentation of stage III-IV ovarian cancer of peritoneal carcinomatosis. Untreated, OVCAR3 tumor is lethal to nude mice.
Six-week-old nude mice were inoculated intraperitoneally with 3.4×10^7 OVCAR3 human ovarian cancer cells. After a three week period, all animals had grossly distended abdomens due to OVCAR3 ascites. Two groups of animals (four each) were paired for relative severity of ascites and treatment was initiated. Compound 1, 50 mg/kg/d in 60% DMSO (200 μL aliquot) or a vehicle alone, was administered via daily intraperitoneal injection. Overall survival from start of treatment was the study endpoint. Relative survival improvement was calculated as mean treatment group survival divided by mean control group survival.

5R cells [3] = assay: Clonogenic (crystal violet) proliferation assay; assay type: cell-based, rat; settings: 0-10 μg/mL, 96 hr
Experimental: (§1) Proliferation: Two independent methods were used to determine the effect of various compounds on cellular proliferation. The first method utilized [^3 H]thymidine labelling and was performed using A2058, 5R, OVCAR3, and MDA-231 cells. Because the potential effect of compound 1 on thymidine metabolism was unknown, a clonogenic assay was also used. This assay utilized crystal violet nuclear staining.
For the clonogenic assay, aliquots of 50,000 cells per well (24 well plates) were grown under standard tissue culture conditions in the presence of increasing doses or test compound (0-10 μg/mL) or vehicle control. After 96 hr, the cells were gently washed with PBS, fixed, and stained with 0.5% crystal violet nuclear stain in 20% methanol. Excess stain was removed with tap water and bound stain was eluted with an equal volume solution of 01N sodium citrate (pH 4.2) and absolute ethanol. Optical density (O.D.) of eluted crystal violet stain was determined at 540 nm. The results of dose-dependent inhibition of tumor cell proliferation by compound 1 are shown in FIG. 5, in which the data are expressed as percent of untreated control cell proliferation for each cell type. The degree of inhibition varied with the cell type and was maximal (76%) for the A2058 cell line.

OVCAR3 cells = assay: Laminin-stimulated cell motility; assay type: cell-based, human; settings: 1 μg/mL, 18 hr preincubation; laminin 100 μg/mL
5R cells [4] = assay: [3H]thymidine incorporation; assay type: cell-based, rat; settings: 0-10 μg/mL, 24 hr
Experimental: as §1
For the thymidine incorporation assay, an initial aliquot of 15,000 cells was plated in 96 well plates. The cells were grown to subconfluence, serum-starved, then fed with serum-containing media to which incremental doses of compound 1 (0-10 μg/mL) were added. After 24 hr, the cells were pulsed with [^3 H]thymidine (0.5 μCi/well) for 2 hr. Trichloroacetic acid was added to precipitate […] [^3 H]thymidine. After removal, ice cold ethanol/diethyl ether was added to precipitate cellular nucleic acids. The residue was solubilized with 0.2M NaOH and [^3 H]thymidine incorporation was determined by liquid scintillation counting. Inhibition of thymidine uptake was calculated as a percent of untreated control cell incorporation of labelled thymidine. As FIG. 4 indicates, de novo DNA synthesis was inhibited in all of the tumor cell lines. Maximal inhibition (80%) was found with the 5R cells.

[5] = tested on: 5R ras-transfected rat embryo fibroblast cell line; assay: Experimental pulmonary metastasis, tumor cells pretreated in vitro; assay type: in vivo, nude mice; settings: cells treated overnight, 1-10 μM; 10 d
Experimental: This example illustrates the effect of selected compounds on the development of experimental pulmonary metastases, when the tumor cells are first incubated with the compound in vitro and subsequently injected into the tail vein of nude mice. In this example, both the 5R ras-transfected rat embryo fibroblast cell line and the HT-29 human colon cancer cell line were evaluated.
The 5R ras-transfected rat embryo fibroblast cell line forms confluent pulmonary metastases within 2-3 weeks after inoculation. For the experimental metastasis assay, 5R cells were treated in culture overnight with the test compounds (1-10 μM). After culture, the cells were harvested, washed and injected into the tail vein of six-week old nude mice. After 10 d, the mice were humanely sacrificed and the lungs were removed and fixed in Bouin's solution. The visible pulmonary metastases were counted.

[6] = tested on: A2058 human melanoma tumors; assay: Oral treatment of subcutaneous xenografts; assay type: in vivo, nude mice
Experimental: This example illustrates the antitumor effect of compound 1 when administered orally to mice, following either subcutaneous inoculation of the mice with A2058 cells at two flank sites, intraperitoneal injection of OVCAR3 cells, or tail vein inoculation with 5R cells.
The antitumor effect of compound 1 was tested on groups of 10 nude mice which had been inoculated subcutaneously at two flank sites with 10^6 A2058 cells. Measureable tumors were observed within 14 days. On day 3 following tumor introduction, compound 1, diluted in PEG-400, or PEG-400 vehicle alone, was administered by gavage. Animals were monitored daily for toxicity, behavior, and extent of tumor. Weights and bidirectional measurements of A2058 tumor masses were determined three times per week.

For NC(=O)c1nnn(Cc2cc(Cl)c(C(=O)c3ccc(Cl)cc3)c(Cl)c2)c1N [Compound 1], the viability [1] was over 96%, the IC50 (CHOm5 cells) was 359 ± 11 nM and the “increase of overall survival” value [2] was 220%. For the same molecule, the “overall survival from start of treatment” value ([2]; control 7.25±4.4 days) was 16.0 ± 2.5 days, the “inhibition of tumor cell proliferation” value (5R cells [3]) was “dose dependent inhibition of tumor cell proliferation” and the “inhibition of spontaneous and laminin-stimulated motility” value (OVCAR3 cells) was “inhibited both spontaneous motility”. For the same molecule, the “maximal inhibition of de novo DNA synthesis ([3H]thymidine incorporation)” value (5R cells [4]) was 80%, the “inhibition of pulmonary colonization” value [5] was 95% and the gross toxicity ([6]; 35 days of administration, and at necropsy) was “No gross toxicity”. For the same molecule, the tumor necrosis ([6]; histologic evaluation of necropsy specimens) was “Marked necrosis”, the tumor growth ([6]; oral gavage from day 3) was “Significant growth arrest” and the tumor incidence ([6]; oral gavage from day 3) was “marked delay in tumor incidence”.
